Data: ChEMBL document CHEMBL4138146, “A Schmidt rearrangement-mediated synthesis of novel tetrahydro-benzo[1,4]diazepin-5-ones as potential anticancer and antiprotozoal agents” (Eur J Med Chem, 2017)

Experiments:
Assay type in all cases: functional
[1] = system: NCI-H322M; assay: Growth inhibition of human NCI-H322M cells assessed as cell growth at 10^-8 M incubated for 48 hrs by sulforhodamine B assay relative to control; details: read-out: Activity
[2] = system: HCT-15; assay: Growth inhibition of human HCT15 cells assessed as cell growth at 10^-8 M incubated for 48 hrs by sulforhodamine B assay relative to control; details: HCT-15, 48 h, read-out: Activity
[3] = system: U-251; assay: Growth inhibition of human U251 cells assessed as cell growth at 10^-8 M incubated for 48 hrs by sulforhodamine B assay relative to control; details: U-251, 48 h, read-out: Activity
[4] = system: Malme-3M; assay: Growth inhibition of human MALME-3M cells assessed as cell growth at 10^-8 M incubated for 48 hrs by sulforhodamine B assay relative to control; details: read-out: Activity
[5] = system: NCI/ADR-RES; assay: Growth inhibition of human NCI/ADR-RES cells assessed as cell growth at 10^-8 M incubated for 48 hrs by sulforhodamine B assay relative to control; details: read-out: Activity
[6] = system: SK-OV-3; assay: Growth inhibition of human SKOV3 cells assessed as cell growth at 10^-8 M incubated for 48 hrs by sulforhodamine B assay relative to control; details: SK-OV-3, 48 h, read-out: Activity
[7] = system: TK-10; assay: Growth inhibition of human TK10 cells assessed as cell growth at 10^-8 M incubated for 48 hrs by sulforhodamine B assay relative to control; details: TK-10, 48 h, read-out: Activity
[8] = system: CCRF-CEM; assay: Growth inhibition of human CCRF-CEM cells assessed as cell growth at 10^-7 M incubated for 48 hrs by sulforhodamine B assay relative to control; details: read-out: Activity
[9] = system: HCC 2998; assay: Growth inhibition of human HCC2998 cells assessed as cell growth at 10^-7 M incubated for 48 hrs by sulforhodamine B assay relative to control; details: HCC 2998, 48 h, read-out: Activity
[10] = system: HCT-116; assay: Growth inhibition of human HCT116 cells assessed as cell growth at 10^-7 M incubated for 48 hrs by sulforhodamine B assay relative to control; details: HCT-116, 48 h, read-out: Activity
[11] = system: MDA-MB-435; assay: Growth inhibition of human MDA-MB-435 cells assessed as cell growth at 10^-7 M incubated for 48 hrs by sulforhodamine B assay relative to control; details: MDA-MB-435, 48 h, read-out: Activity
[12] = system: TK-10; assay: Growth inhibition of human TK10 cells assessed as cell growth at 10^-7 M incubated for 48 hrs by sulforhodamine B assay relative to control; details: TK-10, 48 h, read-out: Activity
[13] = system: DU-145; assay: Growth inhibition of human DU145 cells assessed as cell growth at 10^-7 M incubated for 48 hrs by sulforhodamine B assay relative to control; details: DU-145, 48 h, read-out: Activity
[14] = system: Hs-578T; assay: Growth inhibition of human Hs 578T cells assessed as cell growth at 10^-7 M incubated for 48 hrs by sulforhodamine B assay relative to control; details: read-out: Activity
[15] = system: HL-60(TB); assay: Growth inhibition of human HL-60(TB) cells assessed as cell growth at 10^-6 M incubated for 48 hrs by sulforhodamine B assay relative to control; details: HL-60, 48 h, read-out: Activity
[16] = system: RPMI-8226; assay: Growth inhibition of human RPMI8226 cells assessed as cell growth at 10^-6 M incubated for 48 hrs by sulforhodamine B assay relative to control; details: RPMI-8226, 48 h, read-out: Activity
[17] = system: SF-295; assay: Growth inhibition of human SF295 cells assessed as cell growth at 10^-6 M incubated for 48 hrs by sulforhodamine B assay relative to control; details: SF-295, 48 h, read-out: Activity
[18] = system: SNB-75; assay: Growth inhibition of human SNB75 cells assessed as cell growth at 10^-6 M incubated for 48 hrs by sulforhodamine B assay relative to control; details: SNB-75, 48 h, read-out: Activity
[19] = system: SK-MEL-28; assay: Growth inhibition of human SK-MEL-28 cells assessed as cell growth at 10^-6 M incubated for 48 hrs by sulforhodamine B assay relative to control; details: SK-MEL-28, 48 h, read-out: Activity
[20] = system: RXF 393; assay: Growth inhibition of human RXF393 cells assessed as cell growth at 10^-6 M incubated for 48 hrs by sulforhodamine B assay relative to control; details: RXF 393, 48 h, read-out: Activity
[21] = system: PC-3; assay: Growth inhibition of human PC3 cells assessed as cell growth at 10^-6 M incubated for 48 hrs by sulforhodamine B assay relative to control; details: PC-3, 48 h, read-out: Activity
[22] = system: SR; assay: Growth inhibition of human SR cells assessed as cell growth at 10^-5 M incubated for 48 hrs by sulforhodamine B assay relative to control; details: read-out: Activity
[23] = system: HOP-62; assay: Growth inhibition of human HOP62 cells assessed as cell growth at 10^-5 M incubated for 48 hrs by sulforhodamine B assay relative to control; details: HOP-62, 48 h, read-out: Activity
[24] = system: NCI-H226; assay: Growth inhibition of human NCI-H226 cells assessed as cell growth at 10^-5 M incubated for 48 hrs by sulforhodamine B assay relative to control; details: NCI-H226, 48 h, read-out: Activity
[25] = system: SK-MEL-2; assay: Growth inhibition of human SK-MEL-2 cells assessed as cell growth at 10^-5 M incubated for 48 hrs by sulforhodamine B assay relative to control; details: SK-MEL-2, 48 h, read-out: Activity
[26] = system: MOLT-4; assay: Growth inhibition of human MOLT4 cells assessed as cell growth at 10^-4 M incubated for 48 hrs by sulforhodamine B assay relative to control; details: MOLT-4, 48 h, read-out: Activity
[27] = system: A549; assay: Growth inhibition of human A549/ATCC cells assessed as cell growth at 10^-4 M incubated for 48 hrs by sulforhodamine B assay relative to control; details: A549, 48 h, read-out: Activity
[28] = system: HOP-62; assay: Growth inhibition of human HOP62 cells assessed as cell growth at 10^-4 M incubated for 48 hrs by sulforhodamine B assay relative to control; details: HOP-62, 48 h, read-out: Activity
[29] = system: COLO 205; assay: Growth inhibition of human COLO205 cells assessed as cell growth at 10^-4 M incubated for 48 hrs by sulforhodamine B assay relative to control; details: COLO 205, 48 h, read-out: Activity
[30] = system: HT-29; assay: Growth inhibition of human HT-29 cells assessed as cell growth at 10^-4 M incubated for 48 hrs by sulforhodamine B assay relative to control; details: HT-29, 48 h, read-out: Activity
[31] = system: SK-OV-3; assay: Growth inhibition of human SKOV3 cells assessed as cell growth at 10^-4 M incubated for 48 hrs by sulforhodamine B assay relative to control; details: SK-OV-3, 48 h, read-out: Activity
[32] = system: TK-10; assay: Growth inhibition of human TK10 cells assessed as cell growth at 10^-4 M incubated for 48 hrs by sulforhodamine B assay relative to control; details: TK-10, 48 h, read-out: Activity
[33] = system: UO-31; assay: Growth inhibition of human UO31 cells assessed as cell growth at 10^-4 M incubated for 48 hrs by sulforhodamine B assay relative to control; details: UO-31, 48 h, read-out: Activity

Structure (SMILES): CCCCOc1nc2ccccc2cc1C1CNC(=O)c2ccccc2N1 (stereo not drawn)
- growth at 0.01 µM [1]: 94%
- growth at 0.01 µM [2]: 95%
- growth at 0.01 µM [3]: 99%
- growth at 0.01 µM [4]: 88%
- growth at 0.01 µM [5]: 94%
- growth at 0.01 µM [6]: 88%
- growth at 0.01 µM [7]: 75%
- growth at 0.1 µM [8]: 100%
- growth at 0.1 µM [9]: 93%
- growth at 0.1 µM [10]: 101%
- growth at 0.1 µM [11]: 98%
- growth at 0.1 µM [12]: 83%
- growth at 0.1 µM [13]: 101%
- growth at 0.1 µM [14]: 97%
- growth at 1 µM [15]: -19%
- growth at 1 µM [16]: 84%
- growth at 1 µM [17]: 59%
- growth at 1 µM [18]: 63%
- growth at 1 µM [19]: 71%
- growth at 1 µM [20]: 80%
- growth at 1 µM [21]: 89%
- growth at 10 µM [22]: 1%
- growth at 10 µM [23]: 19%
- growth at 10 µM [24]: 7%
- growth at 10 µM [25]: 33%
- growth at 100 µM [26]: -37%
- growth at 100 µM [27]: -75%
- growth at 100 µM [28]: -59%
- growth at 100 µM [29]: -62%
- growth at 100 µM [30]: -61%
- growth at 100 µM [31]: -21%
- growth at 100 µM [32]: -62%
- growth at 100 µM [33]: -67%
